Experiments:
[1] = tested on: LCN2 expression in SKBr3 cells; test: LCN2 levels in HER2+ SKBr3 cells by Western blotting; assay type: cell-based, human; settings: SKBr3 cells incubated with inhibitor
Excerpt: FIGS. 3A-D depict experiments showing that LCN2 (NGAL) is a down-stream target of the HER2/PI-3K/AKT/NF-κB pathway.
In addition, overexpression of dominant negative AKT led to reduced expression of LCN2, while overexpression of dominant active AKT increased LCN2 levels ([…]). […] Iannetti A, et al. “The neutrophil gelatinase-associated lipocalin (NGAL), a NF-kappaB-regulated gene, is a survival factor for thyroid neoplastic cells” Proc Natl Acad Sci USA 105(37) (2008) 14058.

CXCR4 receptor = settings: animal and human studies; cited from earlier work

## Cc1ccc(S(=O)(=O)/C=C/C#N)cc1 [Bay11-7082]
[1]
  LCN2 expression: reduced in a dose-dependent manner

## c1cc(CN2CCCNCCNCCCNCC2)ccc1CN1CCCNCCNCCCNCC1 [AMD3100]
CXCR4 receptor
  hematopoietic stem cell mobilization: able to induce hematopoietic stem cell mobilization

From patent publication US20170088623A1, “Prophylaxis Against Cancer Metastasis” (Ingeneron, Inc., priority 2015, published 2017)
